According to patent US6706740B2, “Fungicidal heterocyclic aromatic amides and their compositions, methods of use and preparation” (Dow AgroSciences LLC, priority 1999, dated 2004):

test system: Septoria tritici—SEPTTR; experiment: Leaf Blotch of Wheat, in vivo whole plant, 24 Hour Protectant; conditions: Zymoseptoria tritici, 24 h, wheat plants sprayed at 100 ppm, inoculated after 24 hours; control of fungal infection vs untreated plants; read-out: SEPTTR in vivo 1 Day Protectant

Row | Structure (SMILES) | pest or weed control at 100 ppm
1 | Cc1ccc(C(=O)NC2CC(C)(C)CC(C)(C)C2)c(O)n1 [Compound 524] | 25 to 74%
2 | CC(C)(C)C1CCC(NC(=O)c2cnccc2O)CC1 (stereo not drawn) [Compound 504] | < 25%
3 | COc1ccnc(C(=O)Nc2ccc(Oc3cccc(C(F)(F)F)c3)nc2)c1O [Compound 471] | 25 to 74%
4 | CC1(C)CC(NC(=O)c2cncnc2O)CC(C)(C)C1 [Compound 539] | 25 to 74%

test system: not given; experiment: not given; conditions: not given

Row | Structure (SMILES) | melting point
5 | Cc1ccc(C(=O)NC2CC(C)(C)CC(C)(C)C2)c(O)n1 [Compound 524] | 307 to 308 °C
6 | CC(C)(C)C1CCC(NC(=O)c2cnccc2O)CC1 (stereo not drawn) [Compound 504] | 70 to 78 °C
7 | COc1ccnc(C(=O)Nc2ccc(Oc3cccc(C(F)(F)F)c3)nc2)c1O [Compound 471] | 193 to 195 °C
8 | CC1(C)CC(NC(=O)c2cncnc2O)CC(C)(C)C1 [Compound 539] | 263 to 265 °C

test system: Erysiphe graminis—ERYSGT; experiment: Powdery Mildew of Wheat, in vivo whole plant, 24 Hour Protectant; conditions: Erysiphe; wheat plants sprayed at 100 ppm, inoculated after 24 hours; control of fungal infection vs untreated plants; read-out: ERYSGT in vivo 1 Day Protectant

Row | Structure (SMILES) | pest or weed control at 100 ppm
9 | Cc1ccc(C(=O)NC2CC(C)(C)CC(C)(C)C2)c(O)n1 [Compound 524] | < 25%
10 | CC(C)(C)C1CCC(NC(=O)c2cnccc2O)CC1 (stereo not drawn) [Compound 504] | < 25%
11 | COc1ccnc(C(=O)Nc2ccc(Oc3cccc(C(F)(F)F)c3)nc2)c1O [Compound 471] | < 25%
12 | CC1(C)CC(NC(=O)c2cncnc2O)CC(C)(C)C1 [Compound 539] | < 25%

test system: Phytophthora infestans (PHYTIN); experiment: microbe, parasite or virus in culture; type: cell-based; conditions: Phytophthora infestans, read-out: PHYTIN in vitro Growth Inhibition

Row | Structure (SMILES) | inhibition at 25 ppm
13 | Cc1ccc(C(=O)NC2CC(C)(C)CC(C)(C)C2)c(O)n1 [Compound 524] | < 80%
14 | CC(C)(C)C1CCC(NC(=O)c2cnccc2O)CC1 (stereo not drawn) [Compound 504] | < 80%
15 | COc1ccnc(C(=O)Nc2ccc(Oc3cccc(C(F)(F)F)c3)nc2)c1O [Compound 471] | < 80%
16 | CC1(C)CC(NC(=O)c2cncnc2O)CC(C)(C)C1 [Compound 539] | < 80%

test system: Ustilago maydis (USTIMA); experiment: microbe, parasite or virus in culture; type: cell-based; conditions: Mycosarcoma maydis, read-out: USTIMA in vitro Growth Inhibition

Row | Structure (SMILES) | inhibition at 25 ppm
17 | Cc1ccc(C(=O)NC2CC(C)(C)CC(C)(C)C2)c(O)n1 [Compound 524] | < 80%
18 | CC(C)(C)C1CCC(NC(=O)c2cnccc2O)CC1 (stereo not drawn) [Compound 504] | < 80%
19 | COc1ccnc(C(=O)Nc2ccc(Oc3cccc(C(F)(F)F)c3)nc2)c1O [Compound 471] | < 80%
20 | CC1(C)CC(NC(=O)c2cncnc2O)CC(C)(C)C1 [Compound 539] | < 80%

test system: Stagonospora nodorum (Leptosphaeria nodorum—LEPTNO); experiment: In vitro fungal growth inhibition, Stagonospora nodorum (LEPTNO); type: cell-based; conditions: Leptosphaeria; 25 ppm in the growth medium; read-out: LEPTNO in vitro Growth Inhibition

Row | Structure (SMILES) | inhibition at 25 ppm
21 | Cc1ccc(C(=O)NC2CC(C)(C)CC(C)(C)C2)c(O)n1 [Compound 524] | < 80%
22 | CC(C)(C)C1CCC(NC(=O)c2cnccc2O)CC1 (stereo not drawn) [Compound 504] | > 80%
23 | COc1ccnc(C(=O)Nc2ccc(Oc3cccc(C(F)(F)F)c3)nc2)c1O [Compound 471] | > 80%
24 | CC1(C)CC(NC(=O)c2cncnc2O)CC(C)(C)C1 [Compound 539] | < 80%

test system: Rhizoctonia solani (RHIZSO); experiment: microbe, parasite or virus in culture; type: cell-based; conditions: Rhizoctonia solani, read-out: RHIZSO in vitro Growth Inhibition

Row | Structure (SMILES) | inhibition at 25 ppm
25 | Cc1ccc(C(=O)NC2CC(C)(C)CC(C)(C)C2)c(O)n1 [Compound 524] | < 80%
26 | CC(C)(C)C1CCC(NC(=O)c2cnccc2O)CC1 (stereo not drawn) [Compound 504] | < 80%
27 | COc1ccnc(C(=O)Nc2ccc(Oc3cccc(C(F)(F)F)c3)nc2)c1O [Compound 471] | < 80%
28 | CC1(C)CC(NC(=O)c2cncnc2O)CC(C)(C)C1 [Compound 539] | < 80%

test system: Magnaporthe grisea (Pyricularia oryzae—PYRIOR); experiment: microbe, parasite or virus in culture; type: cell-based; conditions: Pyricularia oryzae, read-out: PYRIOR in vitro Growth Inhibition

Row | Structure (SMILES) | inhibition at 25 ppm
29 | Cc1ccc(C(=O)NC2CC(C)(C)CC(C)(C)C2)c(O)n1 [Compound 524] | < 80%
30 | CC(C)(C)C1CCC(NC(=O)c2cnccc2O)CC1 (stereo not drawn) [Compound 504] | < 80%
31 | COc1ccnc(C(=O)Nc2ccc(Oc3cccc(C(F)(F)F)c3)nc2)c1O [Compound 471] | < 80%
32 | CC1(C)CC(NC(=O)c2cncnc2O)CC(C)(C)C1 [Compound 539] | < 80%

test system: Phytophthora infestans—PHYTIN; experiment: whole plant or invertebrate; type: in vivo; conditions: Phytophthora, in Solanum lycopersicum, 24 h, read-out: PHYTIN in vivo 1 Day Protectant

Row | Structure (SMILES) | pest or weed control at 100 ppm
33 | Cc1ccc(C(=O)NC2CC(C)(C)CC(C)(C)C2)c(O)n1 [Compound 524] | < 25%
34 | CC(C)(C)C1CCC(NC(=O)c2cnccc2O)CC1 (stereo not drawn) [Compound 504] | < 25%
35 | COc1ccnc(C(=O)Nc2ccc(Oc3cccc(C(F)(F)F)c3)nc2)c1O [Compound 471] | < 25%
36 | CC1(C)CC(NC(=O)c2cncnc2O)CC(C)(C)C1 [Compound 539] | < 25%

test system: Puccinia recondita—PUCCRT; experiment: Brown Rust of Wheat, in vivo whole plant, 24 Hour Protectant; conditions: Puccinia; wheat plants sprayed at 100 ppm, inoculated after 24 hours; control of fungal infection vs untreated plants; read-out: PUCCRT in vivo 1 Day Protectant

Row | Structure (SMILES) | pest or weed control at 100 ppm
37 | Cc1ccc(C(=O)NC2CC(C)(C)CC(C)(C)C2)c(O)n1 [Compound 524] | < 25%
38 | CC(C)(C)C1CCC(NC(=O)c2cnccc2O)CC1 (stereo not drawn) [Compound 504] | < 25%
39 | COc1ccnc(C(=O)Nc2ccc(Oc3cccc(C(F)(F)F)c3)nc2)c1O [Compound 471] | 25 to 74%
40 | CC1(C)CC(NC(=O)c2cncnc2O)CC(C)(C)C1 [Compound 539] | 25 to 74%

test system: Leptosphaeria nodorum—LEPTNO; experiment: Glume Blotch of Wheat, in vivo whole plant, 24 Hour Protectant; conditions: Leptosphaeria; wheat plants sprayed at 100 ppm, inoculated after 24 hours; control of fungal infection vs untreated plants; read-out: LEPTNO in vivo 1 Day Protectant

Row | Structure (SMILES) | pest or weed control at 100 ppm
41 | Cc1ccc(C(=O)NC2CC(C)(C)CC(C)(C)C2)c(O)n1 [Compound 524] | < 25%
42 | CC(C)(C)C1CCC(NC(=O)c2cnccc2O)CC1 (stereo not drawn) [Compound 504] | 25 to 74%
43 | COc1ccnc(C(=O)Nc2ccc(Oc3cccc(C(F)(F)F)c3)nc2)c1O [Compound 471] | 25 to 74%
44 | CC1(C)CC(NC(=O)c2cncnc2O)CC(C)(C)C1 [Compound 539] | 25 to 74%

test system: Mycosphaerella graminicola (Septoria tritici—SEPTTR); experiment: In vitro fungal growth inhibition, Mycosphaerella graminicola (SEPTTR); type: cell-based; conditions: Zymoseptoria tritici; 25 ppm in the growth medium; read-out: SEPTTR in vitro Growth Inhibition

Row | Structure (SMILES) | inhibition at 25 ppm
45 | Cc1ccc(C(=O)NC2CC(C)(C)CC(C)(C)C2)c(O)n1 [Compound 524] | < 80%
46 | CC(C)(C)C1CCC(NC(=O)c2cnccc2O)CC1 (stereo not drawn) [Compound 504] | < 80%
47 | COc1ccnc(C(=O)Nc2ccc(Oc3cccc(C(F)(F)F)c3)nc2)c1O [Compound 471] | < 80%
48 | CC1(C)CC(NC(=O)c2cncnc2O)CC(C)(C)C1 [Compound 539] | > 80%
